Results published in patent publication US8349824B2, “Triazolopyridine compounds” (Hoffmann-La Roche Inc., priority 2010, dated 2013).

Columns and labels:
human PDE10A full length = molecular target: T1, human PDE10A full length (Homo sapiens, UniProt Q9Y233); assay: PDE10A Scintillation Proximity Assay (SPA), human PDE10A full length assay; type: biochemical; conditions: 50 nM cGMP + 50 nM [3H]-cGMP, 20 minutes at room temperature, read-out: PDE10A inhibition IC50
T1 construct: purchased Enzo Life Science, Lausen, Switzerland SE-534
T1 sequence (Q9Y233 1-779 isoform Q9Y233-1): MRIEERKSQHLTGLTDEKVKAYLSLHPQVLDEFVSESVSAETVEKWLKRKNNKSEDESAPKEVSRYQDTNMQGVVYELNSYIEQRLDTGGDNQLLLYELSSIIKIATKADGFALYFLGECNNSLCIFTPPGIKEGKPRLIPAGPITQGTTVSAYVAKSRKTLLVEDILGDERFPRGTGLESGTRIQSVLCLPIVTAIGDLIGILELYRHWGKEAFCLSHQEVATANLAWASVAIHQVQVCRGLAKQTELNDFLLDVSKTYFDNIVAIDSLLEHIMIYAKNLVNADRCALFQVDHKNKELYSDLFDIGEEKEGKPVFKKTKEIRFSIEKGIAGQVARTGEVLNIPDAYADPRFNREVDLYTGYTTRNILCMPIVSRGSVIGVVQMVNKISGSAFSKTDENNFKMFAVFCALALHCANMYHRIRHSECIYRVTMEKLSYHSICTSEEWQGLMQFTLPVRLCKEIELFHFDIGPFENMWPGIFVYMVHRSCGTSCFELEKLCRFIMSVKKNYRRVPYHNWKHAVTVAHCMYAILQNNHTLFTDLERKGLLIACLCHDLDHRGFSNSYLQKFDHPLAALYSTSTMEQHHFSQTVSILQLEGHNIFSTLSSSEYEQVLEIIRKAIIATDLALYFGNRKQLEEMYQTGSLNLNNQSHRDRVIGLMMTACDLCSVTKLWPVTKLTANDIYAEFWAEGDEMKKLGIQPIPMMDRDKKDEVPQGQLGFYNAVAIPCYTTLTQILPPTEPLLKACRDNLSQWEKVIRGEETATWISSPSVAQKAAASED
Method: The following test was carried out in order to determine the activity of the compounds of the present invention. PDE10 activity of the compounds of the present invention was determined using a Scintillation Proximity Assay (SPA)-based method similar to the one previously described (Fawcett, L. et al., Proc Natl Acad Sci USA (2000) 97(7):3702-3707).
The human PDE10A full length assay was performed in 96-well micro titer plates. The reaction mixture of 50 μl contained 20 mM HEPES pH=7.5/10 mM MgCl2/0.05 mg/ml BSA (Sigma cat. #A-7906), 50 nM cGMP (Sigma, cat. #G6129) and 50 nM [^3H]-cGMP (GE Healthcare, cat. #TRK392 S.A. 13.2Ci/mmol), 3.75 ng/well PDE10A enzyme (Enzo Life Science, Lausen, Switzerland cat #SE-534) with or without a specific test compound. A range of concentrations of the potential inhibitor was used to generate data for calculating the concentration of inhibitor resulting in 50% of the effect (e.g. IC50, the concentration of the competitor inhibiting PDE10A activity by 50%). Non-specific activity was tested without the enzyme. The reaction was initiated by the addition of the substrate solution (cGMP and [^3H]-cGMP) and allowed to progress for 20 minutes at room temperature. The reaction was terminated by adding 25 μl of YSi-SPA scintillation beads (GE Healthcare, cat. #RPNQ0150) in 18 mM zinc sulphate solution (stop reagent). After 1 h under shaking, the plate was centrifuged one minute at 170 g to allow beads to settle. Afterwards, radioactive counts were measured on a Perkin Elmer TopCount Scintillation plate reader.

Compound	IC50 (human PDE10A full length) [nM]	melting point [°C]
Cn1ncc(C(=O)N2C[C@H]3C[C@@H]2CO3)c1C(=O)Nc1ccn2nc(-c3cccnc3)nc2c1 (stereo in doubt) [Example 57, 2-Methyl-4-((1R,4R)-2-oxa-5-aza-bicyclo[2.2.1]heptane-5-carbonyl)-2H-pyrazole-3-carboxylic acid (2-pyridin-3-yl-[1,2,4]triazolo[1,5-a]pyridin-7-yl)-amide]	51.9	272 to 273
COCCN(C)C(=O)c1cnn(C)c1C(=O)Nc1ccn2nc(-c3ccccc3)nc2c1 [Example 4, N4-(2-methoxyethyl)-N4,1-dimethyl-N5-(2-phenyl-[1,2,4]triazolo[1,5-a]pyridin-7-yl)-1H-pyrazole-4,5-dicarboxamide]	0.28	172 to 175
CCN(C)C(=O)c1cnn(C)c1C(=O)Nc1ccn2nc(-c3ccccc3)nc2c1 [Example 5, N4-ethyl-N4,1-dimethyl-N5-(2-phenyl-[1,2,4]triazolo[1,5-a]pyridin-7-yl)-1H-pyrazole-4,5-dicarboxamide]	0.5	193 to 194
Cn1ncc(C(=O)N2CCC2)c1C(=O)Nc1ccn2nc(N3CCOCC3)nc2c1 [Example 8, 4-(Azetidine-1-carbonyl)-1-methyl-N-(2-morpholino-[1,2,4]triazolo[1,5-a]pyridin-7-yl)-1H-pyrazole-5-carboxamide]	1.88	232 to 234
Cc1c(NC(=O)c2c(C(=O)N3CCC3)cnn2C)ccn2nc(-c3ccccc3)nc12 [Example 9, 4-(Azetidine-1-carbonyl)-1-methyl-N-(8-methyl-2-phenyl-[1,2,4]triazolo[1,5-a]pyridin-7-yl)-1H-pyrazole-5-carboxamide]	16.3	243 to 245
Cc1cn2nc(-c3ccccc3)nc2cc1NC(=O)c1c(C(=O)N2CCC2)cnn1C [Example 10, 4-(Azetidine-1-carbonyl)-1-methyl-N-(6-methyl-2-phenyl-[1,2,4]triazolo[1,5-a]pyridin-7-yl)-1H-pyrazole-5-carboxamide]	0.19	226 to 228
Cn1ncc(C(=O)N2CCCC2)c1C(=O)Nc1ccn2nc(-c3ccccc3)nc2c1 [Example 13, 1-Methyl-N-(2-phenyl-[1,2,4]triazolo[1,5-a]pyridin-7-yl)-4-(pyrrolidine-1-carbonyl)-1H-pyrazole-5-carboxamide]	0.13	210 to 215
COCCCNC(=O)c1cnn(C)c1C(=O)Nc1ccn2nc(-c3ccccc3)nc2c1 [Example 16, N4-(3-Methoxypropyl)-1-methyl-N5-(2-phenyl-[1,2,4]triazolo[1,5-a]pyridin-7-yl)-1H-pyrazole-4,5-dicarboxamide]	2.34	191 to 193
CCN(CC)C(=O)c1cnn(C)c1C(=O)Nc1ccn2nc(-c3ccccc3)nc2c1 [Example 18, N4,N4-diethyl-1-methyl-N5-(2-phenyl-[1,2,4]triazolo[1,5-a]pyridin-7-yl)-1H-pyrazole-4,5-dicarboxamide]	0.25	177 to 179
Cc1ccc(CN(C)C(=O)c2cnn(C)c2C(=O)Nc2ccn3nc(-c4ccccc4)nc3c2)cn1 [Example 20, N4,1-dimethyl-N4-((6-methylpyridin-3-yl)methyl)-N5-(2-phenyl-[1,2,4]triazolo[1,5-a]pyridin-7-yl)-1H-pyrazole-4,5-dicarboxamide]	1.24	110 to 150
Cn1ncc(C(=O)N2CCS(=O)(=O)CC2)c1C(=O)Nc1ccn2nc(-c3ccccc3)nc2c1 [Example 22, 4-(1,1-Dioxo-thiomorpholine-4-carbonyl)-2-methyl-2H-pyrazole-3-carboxylic acid (2-phenyl-[1,2,4]triazolo[1,5-a]pyridin-7-yl)-amide]	9.01	> 250
COC1CN(C(=O)c2cnn(C)c2C(=O)Nc2ccn3nc(-c4ccccc4)nc3c2)C1 [Example 24, 4-(3-Methoxyazetidine-1-carbonyl)-1-methyl-N-(2-phenyl-[1,2,4]triazolo[1,5-a]pyridin-7-yl)-1H-pyrazole-5-carboxamide]	21.5	269 to 270
CCOC(=O)c1cnn(C)c1C(=O)Nc1ccn2nc(-c3ccccc3)nc2c1 [Example 28, ethyl 1-methyl-5-(2-phenyl-[1,2,4]triazolo[1,5-a]pyridin-7-ylcarbamoyl)-1H-pyrazole-4-carboxylate]	7.3	242 to 243
Cn1ncc(C(=O)N2CCOCC2)c1C(=O)Nc1ccn2nc(N3CCOCC3)nc2c1 [Example 29, 1-Methyl-4-(morpholine-4-carbonyl)-N-(2-morpholino-[1,2,4]triazolo[1,5-a]pyridin-7-yl)-1H-pyrazole-5-carboxamide]	40.5	206 to 208
Cn1ncc(C(=O)N2CCC2)c1C(=O)Nc1cc2nc(-c3ccccc3)nn2cc1F [Example 30, 4-(Azetidine-1-carbonyl)-N-(6-fluoro-2-phenyl-[1,2,4]triazolo[1,5-a]pyridin-7-yl)-1-methyl-1H-pyrazole-5-carboxamide]	1.27	> 250
Cn1ncc(C(=O)N2CCOCC2)c1C(=O)Nc1ccn2nc(N3CCCC3=O)nc2c1 [Example 133, Methyl-4-(morpholine-4-carbonyl)-N-(2-(2-oxopyrrolidin-1-yl)-[1,2,4]triazolo[1,5-a]pyridin-7-yl)-1H-pyrazole-5-carboxamide]	16.1	–

Results, then the compound that gave them:

IC50 (human PDE10A full length) [nM]	melting point [°C]	Compound
14.6	243 to 247	COC(=O)c1cnn(C)c1C(=O)Nc1ccn2nc(-c3ccccc3)nc2c1 [Example 1, methyl 1-methyl-5-(2-phenyl-[1,2,4]triazolo[1,5-a]pyridin-7-ylcarbamoyl)-1H-pyrazole-4-carboxylate]
24.9	> 300	Cn1ncc(C(=O)O)c1C(=O)Nc1ccn2nc(-c3ccccc3)nc2c1 [Example 2, 1-Methyl-5-(2-phenyl-[1,2,4]triazolo[1,5-a]pyridin-7-ylcarbamoyl)-1H-pyrazole-4-carboxylic acid]
0.71	243 to 245	Cn1ncc(C(=O)N2CCC2)c1C(=O)Nc1ccn2nc(-c3ccccc3)nc2c1 [Example 3, 4-(Azetidine-1-carbonyl)-2-methyl-2H-pyrazole-3-carboxylic acid (2-phenyl-[1,2,4]triazolo[1,5-a]pyridin-7-yl)-amide]
1.63	253 to 255	CCNC(=O)c1cnn(C)c1C(=O)Nc1ccn2nc(-c3ccccc3)nc2c1 [Example 7, N4-ethyl-1-methyl-N5-(2-phenyl-[1,2,4]triazolo[1,5-a]pyridin-7-yl)-1H-pyrazole-4,5-dicarboxamide]
0.9	> 250	CN(C)C(=O)c1cnn(C)c1C(=O)Nc1ccn2nc(-c3ccccc3)nc2c1 [Example 11, 2-Methyl-2H-pyrazole-3,4-dicarboxylic acid 4-dimethylamide 3-[(2-phenyl-[1,2,4]triazolo[1,5-a]pyridin-7-yl)-amide]]
12.4	> 250	Cn1ncc(C(=O)N[C@H]2CCOC2)c1C(=O)Nc1ccn2nc(-c3ccccc3)nc2c1 [Example 14, (S)-1-Methyl-N5-(2-phenyl-[1,2,4]triazolo[1,5-a]pyridin-7-yl)-N4-(tetrahydrofuran-3-yl)-1H-pyrazole-4,5-dicarboxamide]
4.85	> 250	Cn1ncc(C(=O)N[C@@H]2CCOC2)c1C(=O)Nc1ccn2nc(-c3ccccc3)nc2c1 [Example 15, (R)-1-Methyl-N5-(2-phenyl-[1,2,4]triazolo[1,5-a]pyridin-7-yl)-N4-(tetrahydrofuran-3-yl)-1H-pyrazole-4,5-dicarboxamide]
11.8	> 250	Cn1ncc(C(=O)NC2COC2)c1C(=O)Nc1ccn2nc(-c3ccccc3)nc2c1 [Example 17, 1-Methyl-N4-(oxetan-3-yl)-N5-(2-phenyl-[1,2,4]triazolo[1,5-a]pyridin-7-yl)-1H-pyrazole-4,5-dicarboxamide]
5.38	> 250	CC(C)NC(=O)c1cnn(C)c1C(=O)Nc1ccn2nc(-c3ccccc3)nc2c1 [Example 19, N4-isopropyl-1-methyl-N5-(2-phenyl-[1,2,4]triazolo[1,5-a]pyridin-7-yl)-1H-pyrazole-4,5-dicarboxamide]
4.25	> 250	CNC(=O)c1cnn(C)c1C(=O)Nc1ccn2nc(-c3ccccc3)nc2c1 [Example 23, N4,1-dimethyl-N5-(2-phenyl-[1,2,4]triazolo[1,5-a]pyridin-7-yl)-1H-pyrazole-4,5-dicarboxamide]
0.39	259 to 262	Cn1ncc(C(=O)N2CC(F)C2)c1C(=O)Nc1ccn2nc(-c3ccccc3)nc2c1 [Example 25, 4-(3-Fluoroazetidine-1-carbonyl)-1-methyl-N-(2-phenyl-[1,2,4]triazolo[1,5-a]pyridin-7-yl)-1H-pyrazole-5-carboxamide]
